Results from ChEMBL document CHEMBL1129740, “Structure-activity relationships of a series of substituted benzamides: potent D2/5-HT2 antagonists and 5-HT1a agonists as neuroleptic agents” (J Med Chem, 1996).

What was measured:
[1] = target: Serotonin 2 (5-HT2) receptor (Rattus norvegicus, UniProt P30994+P08909+P14842); assay: In vitro inhibitory activity against [3H]ketanserin binding to 5-hydroxytryptamine 2 receptor; assay type: protein assay
[2] = target: T1, 5-hydroxytryptamine receptor 1A (Rattus norvegicus, UniProt P19327); assay: In vitro inhibitory activity against [3H]8-OH-DPAT binding to 5-hydroxytryptamine 1A receptor
T1 sequence (P19327 whole entry): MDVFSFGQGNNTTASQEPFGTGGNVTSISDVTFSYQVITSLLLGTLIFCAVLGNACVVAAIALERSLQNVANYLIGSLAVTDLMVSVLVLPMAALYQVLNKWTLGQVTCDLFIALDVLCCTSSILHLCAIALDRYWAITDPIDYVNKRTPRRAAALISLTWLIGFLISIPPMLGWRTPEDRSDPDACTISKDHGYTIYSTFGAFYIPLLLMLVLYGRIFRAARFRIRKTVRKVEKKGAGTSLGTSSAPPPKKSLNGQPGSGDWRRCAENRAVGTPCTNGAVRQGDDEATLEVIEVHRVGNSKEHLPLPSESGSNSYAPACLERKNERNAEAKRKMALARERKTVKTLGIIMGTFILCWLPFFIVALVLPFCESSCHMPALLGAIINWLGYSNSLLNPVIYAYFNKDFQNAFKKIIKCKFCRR

Mus musculus [3] = assay: In vivo effective dose required to antagonize the apomorphine induced climbing response in mice administered perorally; assay type: functional; conditions: po
Mus musculus [4] = assay: In vivo effective dose required to antagonize the apomorphine induced climbing response in mice administered intraperitoneally.; assay type: functional; conditions: ip
Mus musculus [5] = assay: In vivo effective dose to induce catalepsy in mouse administered perorally. Value in parentheses is 95% confidence limits.; assay type: functional; conditions: po
Mus musculus [6] = assay: In vivo effective dose to antagonize the apomorphine induced climbing response in mice administered intraperitoneally. (value in bracket denotes 95% confidence limit); assay type: functional; conditions: ip
Mus musculus [7] = assay: In vivo effective dose to antagonize the apomorphine induced climbing response in stereotype mouse administered intraperitoneally ( value in bracket indicates 95% confidence limit); assay type: functional; conditions: ip
Mus musculus [8] = assay: In vivo effective dose to antagonize the apomorphine induced climbing response in stereotypy mouse administered perorally Value in parentheses is 95% confidence limits.; assay type: functional; conditions: po
Mus musculus [9] = assay: In vivo effective dose to antagonize the apomorphine induced climbing response in mice administered perorally. value in bracket denotes 95% confidence limit); assay type: functional; conditions: po
Mus musculus [10] = assay: In vivo effective dose to induce catalepsy in mouse administered perorally.; assay type: functional; conditions: po
Mus musculus [11] = assay: In vivo effective dose to antagonize the apomorphine induced climbing response in stereotypy mouse administered perorally; assay type: functional; conditions: po
Mus musculus [12] = assay: In vivo effective dose to antagonize the apomorphine induced climbing response in stereotype mouse administered intraperitoneally; assay type: functional; conditions: ip
Mus musculus [13] = assay: In vivo effective dose to antagonize the apomorphine induced climbing response in mice administered perorally; assay type: functional; conditions: po
Mus musculus [14] = assay: In vivo effective dose to antagonize the apomorphine induced climbing response in mice administered intraperitoneally.; assay type: functional; conditions: ip

IC50 [1] [nM] | IC50 [2] [nM] | Compound | ED50 (Mus musculus [3]) [mg/kg] | ED50 (Mus musculus [4]) [mg/kg] | further results
68 | 520 | CC(C)(C)c1ccc(C(=O)NCCCCN2CCN(c3nsc4ccccc34)CC2)cc1.Cl | > 25 | – | –
2 | 5.2 | CC(=O)Nc1ccccc1C(=O)NCCCCN1CCN(c2nsc3ccccc23)CC1.Cl | 22.3 | 4.1 | –
1.7 | 49 | Cl.O=C(NCCCCN1CCN(c2nsc3ccccc23)CC1)c1cc(Cl)cc(Cl)c1 | – | > 25 | –
2.3 | 9 | COc1ccc(C(=O)NCCCCN2CCN(c3nsc4ccccc34)CC2)cc1.Cl | > 25 | 2.4 | –
3.3 | 3.8 | Cl.Nc1ccccc1C(=O)NCCCCN1CCN(c2nsc3ccccc23)CC1 | – | – | ED50 (Mus musculus [5]): 192 mg/kg; ED50 (Mus musculus [6]): 1.5 mg/kg; ED50 (Mus musculus [7]): 10.2 mg/kg; ED50 (Mus musculus [8]): 91.1 mg/kg; ED50 (Mus musculus [9]): 10.1 mg/kg
2.3 | 12 | Cl.Nc1cc(C(F)(F)F)ccc1C(=O)NCCCCN1CCN(c2nsc3ccccc23)CC1 | > 50 | 6.9 | –
1.6 | 4.2 | Cl.Nc1cccc(F)c1C(=O)NCCCCN1CCN(c2nsc3ccccc23)CC1 | 20.8 | 7.8 | –
3.8 | 20 | Cl.Nc1ccc([N+](=O)[O-])cc1C(=O)NCCCCN1CCN(c2nsc3ccccc23)CC1 | – | 19.6 | –
1.5 | 9.1 | Cl.O=C(NCCCCN1CCN(c2nsc3ccccc23)CC1)c1ccc(C(F)(F)F)cc1 | > 25 | 12.5 | –
12 | 10 | CNc1ccccc1C(=O)NCCCCN1CCN(c2nsc3ccccc23)CC1.Cl | 15.6 | 5.8 | ED50 (Mus musculus [10]): 80.6 mg/kg; ED50 (Mus musculus [11]): 65 mg/kg; ED50 (Mus musculus [12]): 13.5 mg/kg
150 | 23 | Cl.Nc1ccc(C(=O)NCCCCN2CCN(c3nsc4ccccc34)CC2)cc1 | – | > 25 | –
8.9 | 64 | Cc1cccc(N)c1C(=O)NCCCCN1CCN(c2nsc3ccccc23)CC1.Cl | – | > 25 | –
1.4 | – | CCOC(=O)Nc1ccccc1C(=O)NCCCCN1CCN(c2nsc3ccccc23)CC1.Cl | 32.8 | 1.8 | –
2.3 | – | Cl.Nc1ccc(F)cc1C(=O)NCCCCN1CCN(c2nsc3ccccc23)CC1 | 31.8 | 2.2 | –
26 | 540 | Cl.O=C(NCCCCN1CCN(c2nsc3ccccc23)CC1)c1ccc(/N=N/c2ccccc2)cc1 | – | > 25 | –
2.1 | 5.2 | Cl.O=C(NCCCCN1CCN(c2nsc3ccccc23)CC1)c1ccccc1 | 21.5 | 1.1 | –
0.23 | 0.7 | CC(C)(C)OC(=O)Nc1ccc(C(=O)NCCCCN2CCN(c3nsc4ccccc34)CC2)cc1.Cl | – | > 25 | –
6.3 | 23 | CCc1cc(Cl)c(O)c(C(=O)NCCCCN2CCN(c3nsc4ccccc34)CC2)c1OC.Cl | – | 25.5 | –
16 | 120 | Cl.O=C(NCCCCN1CCN(c2nsc3ccccc23)CC1)c1c(O)ccc(Br)c1O | 28.8 | 6 | –
15 | 26 | COc1ccc(Br)c(O)c1C(=O)NCCCCN1CCN(c2nsc3ccccc23)CC1.Cl | 14.3 | 1.5 | ED50 (Mus musculus [10]): 123 mg/kg; ED50 (Mus musculus [11]): 87.5 mg/kg; ED50 (Mus musculus [12]): 15.4 mg/kg
1.4 | 10 | COc1ccc(N)c(C(=O)NCCCCN2CCN(c3nsc4ccccc34)CC2)c1.Cl | > 50 | 2.1 | –
30 | 180 | CCc1cc(Cl)c(OC)c(C(=O)NCCCCN2CCN(c3nsc4ccccc34)CC2)c1OC.Cl | – | 26 | –

IC50 [1] [nM] | IC50 [2] [nM] | Compound | ED50 (Mus musculus [3]) [mg/kg] | ED50 (Mus musculus [4]) [mg/kg] | further results
3.9 | 12 | Cl.O=C(NCCCCN1CCN(c2nsc3ccccc23)CC1)c1ccccc1O | – | 1 | ED50 (Mus musculus [13]): 21.5 mg/kg
5.8 | – | Cc1cccc(C(=O)NCCCCN2CCN(c3nsc4ccccc34)CC2)c1N.Cl | 37.6 | 5.4 | –
0.59 | 4.2 | Cl.Nc1cc(F)ccc1C(=O)NCCCCN1CCN(c2nsc3ccccc23)CC1 | 27.1 | 2.5 | –
1.6 | 8.6 | CC(C)[C@@H](Nc1ccccc1C(=O)NCCCCN1CCN(c2nsc3ccccc23)CC1)C(=O)O.Cl | – | > 25 | –
12 | 74 | COc1ccc(Br)c(OC)c1C(=O)NCCCCN1CCN(c2nsc3ccccc23)CC1.Cl | – | > 25 | –
1.6 | 4.1 | COc1cccc(C(=O)NCCCCN2CCN(c3nsc4ccccc34)CC2)c1N.Cl | 20.3 | 2.2 | –
3.4 | – | Cl.Nc1cccc(Cl)c1C(=O)NCCCCN1CCN(c2nsc3ccccc23)CC1 | – | > 25 | –
5.6 | 15 | Cl.O=C(NCCCCN1CCN(c2nsc3ccccc23)CC1)c1ccc(Cl)cc1 | > 25 | 9.4 | –
3.9 | 1.4 | CN(CCCCN1CCN(c2nsc3ccccc23)CC1)C(=O)c1ccccc1.Cl | 22.4 | 10 | –
14 | – | COc1c(Br)ccc(O)c1C(=O)NCCCCN1CCN(c2nsc3ccccc23)CC1.Cl | > 25 | 4.7 | –
51 | – | CC(=O)Nc1ccc(C(=O)NCCCCN2CCN(c3nsc4ccccc34)CC2)cc1.Cl | > 25 | > 25 | –
1.8 | 3.7 | Cl.[N-]=[N+]=Nc1ccccc1C(=O)NCCCCN1CCN(c2nsc3ccccc23)CC1 | – | – | ED50 (Mus musculus [14]): 25 mg/kg
3.7 | 6.4 | Cl.O=C(NCCCCN1CCN(c2nsc3ccccc23)CC1)c1ccccc1[N+](=O)[O-] | – | 25 | –
2.6 | 6.6 | Cl.Nc1cccc(C(=O)NCCCCN2CCN(c3nsc4ccccc34)CC2)c1 | – | – | –
2.4 | 3.8 | Cl.NNc1ccccc1C(=O)NCCCCN1CCN(c2nsc3ccccc23)CC1 | 40.4 | 10.8 | –
2.7 | 5.4 | CC(C)[C@H](Nc1ccccc1C(=O)NCCCCN1CCN(c2nsc3ccccc23)CC1)C(=O)O.Cl | 17.9 | – | ED50 (Mus musculus [10]): 44.5 mg/kg; ED50 (Mus musculus [11]): 59.9 mg/kg; ED50 (Mus musculus [12]): 26.9 mg/kg
2.3 | 1.2 | CN(CCCCN1CCN(c2nsc3ccccc23)CC1)C(=O)c1ccccc1N.Cl | – | > 12 | –
1.3 | 12 | CC(C)(C)OC(=O)Nc1cccc(C(=O)NCCCCN2CCN(c3nsc4ccccc34)CC2)c1.Cl | – | > 25 | –
0.5 | 1.5 | Cl.Nc1c(F)cccc1C(=O)NCCCCN1CCN(c2nsc3ccccc23)CC1 | 14.3 | 0.9 | ED50 (Mus musculus [10]): 55.5 mg/kg; ED50 (Mus musculus [11]): 46.7 mg/kg; ED50 (Mus musculus [12]): 8.9 mg/kg
6.8 | 69 | CCc1cc(Cl)c(OC)c(C(=O)NCCCCN2CCN(c3nsc4ccccc34)CC2)c1O.Cl | – | > 25 | –
1.6 | 9.4 | Cl.Nc1ccc(Cl)cc1C(=O)NCCCCN1CCN(c2nsc3ccccc23)CC1 | 25 | < 6 | –
